Results: patent publication US8470844B2, “Imidazoacridinone derivative compounds and methods for their use” (Technion Research & Development Foundation Limited, priority 2008, dated 2013)

Assays:
ABCG2 (A549/K1.5 cells) [1] = target: T1, ABCG2 (A549/K1.5 cells) (Homo sapiens, UniProt Q9UNQ0); assay: Flow cytometric IA accumulation in A549/K1.5 cells with or without fumitremorgin C; type: cell-based
T1 construct: Drug resistant A549/K1.5 cells with ABCG2 overexpression were maintained under a continuous drug selection with 1.5 μM C-1305; endogenous in cells; host or cells: A549/K1.5 (C-1305-selected subline of human non-small cell lung cancer A549)
T1 sequence (Q9UNQ0 1-655): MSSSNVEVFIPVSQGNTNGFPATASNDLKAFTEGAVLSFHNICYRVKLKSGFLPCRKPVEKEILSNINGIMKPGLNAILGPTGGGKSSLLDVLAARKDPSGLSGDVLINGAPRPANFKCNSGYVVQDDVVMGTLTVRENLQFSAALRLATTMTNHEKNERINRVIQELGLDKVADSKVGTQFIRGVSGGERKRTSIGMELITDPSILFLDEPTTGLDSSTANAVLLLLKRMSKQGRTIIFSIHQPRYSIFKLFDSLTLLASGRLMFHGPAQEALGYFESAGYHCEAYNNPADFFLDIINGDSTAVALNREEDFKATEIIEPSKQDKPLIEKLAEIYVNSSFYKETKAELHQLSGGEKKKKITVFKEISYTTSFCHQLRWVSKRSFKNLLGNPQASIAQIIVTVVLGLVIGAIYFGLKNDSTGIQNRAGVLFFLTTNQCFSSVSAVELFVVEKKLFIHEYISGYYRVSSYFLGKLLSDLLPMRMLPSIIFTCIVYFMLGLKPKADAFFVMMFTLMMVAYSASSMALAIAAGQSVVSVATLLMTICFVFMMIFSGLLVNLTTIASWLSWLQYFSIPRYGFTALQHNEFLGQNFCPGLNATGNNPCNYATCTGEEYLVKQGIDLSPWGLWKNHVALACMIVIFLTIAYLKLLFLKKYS
Description: In this assay, one ml aliquots of A549/K1.5 or CCRF-CEM cell suspensions (1×10^6 cells/ml) in growth medium containing 20 mM Hepes at pH 7.3 were distributed into 1.5 ml polypropylene Eppendorf test tubes. […] Rabindran, S. […] Alternatively, in time-course experiments, IA derivatives at a constant concentration of 10 μM were added to a CCRF-CEM cell suspension incubated at 37° C., and 1 ml aliquots were removed at variable time points up to 1 hour. Following incubation, test tubes were transferred to ice and centrifuged at 4° C. Cells were then washed twice and re-suspended in ice-cold PBS containing 1% fetal calf serum and kept in the dark at 4° C. until analysis. […] Quantitative evaluation of ABCG2 interaction with various IA derivatives: The extent of ABCG2-mediated resistance was expressed using the Resistance Fold (RF) parameter representing the ratio between the IC50 values of the resistant cells and parental cells.

ABCG2 (A549/K1.5 cells) [2] = target: T1, ABCG2 (A549/K1.5 cells); assay: Fluorescence microscopy of nuclear accumulation of IAs in A549/K1.5 cells; type: cell-based; conditions: 10 μM IA, 1 hr
Description: In immunofluorescence microscopy of plasma membrane targeting of ABCG2 and nuclear accumulation of IAs, cells (1×10^4/well) were seeded in 24-well plates (1 ml medium/well) and incubated for 2 days, following which some wells were supplemented with 10 μM IA-containing medium±5 μM FTC and incubated for 1 h at 37° C. Cells were then washed twice with ice-cold PBS containing 0.1% BSA and blocked for 10 min at 4° C. with PBS containing 5% BSA. Cells were then washed once with ice-cold PBS containing 0.1% BSA and incubated for 30 min at 4° C. with a Phycoerythrin-conjugated, affinity-purified 5D3 mouse anti-human ABCG2 monoclonal antibody (1:100; eBioscience). Unspecific fluorescence was determined using cells that were incubated only with a secondary Phycoerythrin (PE)-conjugated goat anti-mouse IgG (1:200; Jackson Immunoresearch Labs, West Grove, Pa.). Cells were then washed twice and subjected to fluorescence microscopy using a DMIRE2 fluorescence microscope equipped with a DC300FX camera (Leica Microsystems, Wetzlar, Germany).
In order to exclude the possibility that differential subcellular accumulation of IA derivatives is the basis of the observed difference in cytotoxicity and cellular fluorescence, A549/K1.5 cells were incubated with 10 μM of selected IA derivatives from both group A and B in the presence or absence of FTC and subjected to fluorescence microscopy.

SMILES: CCN(CC)CCNc1ccc2ncn3c4ccc(O)cc4c(=O)c1c23 [C-1311]
- ABCG2-mediated extrusion / interaction with ABCG2 (in words) (ABCG2 (A549/K1.5 cells) [1]): extruded by ABCG2-overexpressing lung cancer A549/K1.5 cells
- intracellular accumulation (fluorescence microscopy) (ABCG2 (A549/K1.5 cells) [2]; absence of FTC): no apparent intracellular accumulation
- nuclear accumulation (fluorescence microscopy) (ABCG2 (A549/K1.5 cells) [2]; presence of 5 μM FTC): marked restoration of nuclear accumulation
